Test results: patent US10640533B2, “Epoxyketone compounds for enzyme inhibition” (CENTRAX INTERNATIONAL, INC., priority 2014, dated 2020)
≈ marks a conversion by molar mass, not a printed value. Like-named read-outs stand apart in the source and are kept apart here.

Tests used:
[1] = biological target: Constitutive 20S proteasome chymotrypsin-like (CT-L) activity (Homo sapiens (Human), UniProt P20618+P28074); assay: Constitutive 20S proteasome CT-L activity inhibition, fluorogenic substrate succinyl-Leu-Leu-Val-Tyr-AMC; format: biochemical
Method: (§1) Inhibition of the 20S proteasome can be determined by methods and assays known in the art, for example, as disclosed by Stein et al., Biochemistry (1996), 35, 3899-3908; by Lightcap et al., Clinical Chemistry, 2000, 46, 673-683; by Kisselev et al., Journal of Biological Chemistry. (2006), 281, 8582-8590 and in U.S. application Ser. No. 09/569,748. The chymotrypsin-like (CT-L), peptidylglutamyl peptide hydrolyzing (PGPH) and trypsin-like (T-L) activities of the 20S proteasome are measured with a fluorogenic substrate assay method using succinyl-Leu-Leu-Val-Tyr-AMC, Z-Leu-Leu-Glu-AMC and Boc-Leu-Arg-Arg-AMC, respectively, as the substrates in an assay buffer. The free fluorophore 7-Amino-4-methylcoumarin (AMC) after cleavage from the substrates is quantified using a fluorometer and activity of CT-L, PGPH and T-L of 20S proteasome is determined.
(§2) Inhibition of the chymotrypsin-like (CT-L), peptidylglutamyl peptide hydrolyzing activity (PGPH), and trypsin-like (T-L) activities of the 20S proteasome in enzymatic assays were determined using succinyl-Leu-Leu-Val-Tyr-AMC (10 μmol/L), Z-Leu-Leu-Glu-AMC (10 μmol/L) and Boc-Leu-Arg-Arg-AMC (50 μmol/L), respectively, as the substrates with purified human 20S proteasome at 2, 4 and 8 nmol/L, respectively, in the assay buffer containing 25 mM HEPES (pH7.5), 0.5 mM EDTA, 0.002% sodium dodecyl sulfate (SDS) and 0.05% NP-40. Stock solutions of the 20S proteasome inhibitors disclosed herein were prepared in dimethyl sulfoxide (DMSO) and the final DMSO concentration in the assay mixture was 1%. Reaction was conducted at room temperature for one hour. Proteasome activity was measured based on detection of the fluorophore 7-Amino-4-methylcoumarin (AMC) after cleavage from the substrates with a plate-based spectrofluorometer.

[2] = biological target: Constitutive 20S proteasome peptidylglutamyl peptide hydrolyzing (PGPH) activity (Homo sapiens (Human), UniProt P28072+Q99436); assay: Constitutive 20S proteasome PGPH activity inhibition, fluorogenic substrate Z-Leu-Leu-Glu-AMC; format: biochemical; conditions: purified human 20S proteasome, room temperature, one hour
Method: as §1, §2

[3] = biological target: 20S Immunoproteasome trypsin-like (T-L) activity (Homo sapiens (Human), UniProt P40306+P49720); assay: 20S immunoproteasome T-L activity inhibition, fluorogenic substrate Boc-Leu-Arg-Arg-AMC; format: biochemical; conditions: purified human 20S proteasome, room temperature, one hour
Method: as §1, §2

[4] = Aqueous solubility of the compounds; format: physicochemical; conditions: 50 mM citrate buffer, pH 4, aqueous buffer, thermodynamic from solid, 50 mM citrate pH4.0, 25° C.
Method: To determine the solubility of the compounds, 1-5 mg of a compound was weighed into a vial. 1 mL of aqueous buffer (50 mM citrate at pH4.0) was added. The vial was shaken at 25° C. for 24 hours and then centrifuged for 10 min at 10000 rpm. The supernatant was filtered through a 0.45 μm membrane filter and analyzed for the concentration of the compound. In certain embodiments, the aqueous solubility of the compounds is described herein in Table 1.

[5] = biological target: Constitutive 20S proteasome trypsin-like (T-L) activity (Homo sapiens (Human), UniProt P49720+Q99436); assay: Constitutive 20S proteasome T-L activity inhibition, fluorogenic substrate Boc-Leu-Arg-Arg-AMC; format: biochemical
Method: as §1, §2

[6] = biological target: 20S Immunoproteasome chymotrypsin-like (CT-L) activity (Homo sapiens (Human), UniProt P20618+P28062); assay: 20S immunoproteasome CT-L activity inhibition, fluorogenic substrate succinyl-Leu-Leu-Val-Tyr-AMC; format: biochemical; conditions: purified human 20S proteasome, room temperature, one hour
Method: as §1, §2

[7] = biological target: 20S Immunoproteasome peptidylglutamyl peptide hydrolyzing (PGPH) activity (Homo sapiens (Human), UniProt P28065+P40306); assay: 20S immunoproteasome PGPH activity inhibition, fluorogenic substrate Z-Leu-Leu-Glu-AMC; format: biochemical; conditions: purified human 20S proteasome, room temperature, one hour
Method: as §1, §2

[8] = form of 20S proteasome not stated, 'below about'
[9] = purified human 20S proteasome, room temperature, one hour, read-out: Proteasome inhibition IC50 (nM) Constitutive 20S proteasome CT-L
[10] = purified human 20S proteasome, room temperature, one hour, read-out: Proteasome inhibition IC50 (nM) Constitutive 20S proteasome T-L
[11] = form of 20S proteasome not stated, 'below about', read-out: concentration showing inhibition of T-L activity of the 20S proteasome

| Structure (SMILES) | IC50 [1, 8] | IC50 [1, 9] | IC50 [2] | IC50 [3] | solubility at 24 h [4] | IC50 [5, 10] | IC50 [6] | IC50 [7] | IC50 [5, 11] |
| --- | --- | --- | --- | --- | --- | --- | --- | --- | --- |
| CC(C)C[C@H](NC(=O)[C@H](CCc1ccccc1)NC(=O)c1cc(CN2CCOCC2)on1)C(=O)N[C@@H](Cc1ccncc1)C(=O)[C@@]1(C)CO1 [CX13-104] | < 50 nM | 33.3 nM | > 20000 nM | > 20000 nM | 1440 µg/mL (≈ 2130 µM) | > 20000 nM | 33.6 nM | > 20000 nM |  |
| CC(C)C[C@H](NC(=O)[C@H](CCc1ccccc1)NC(=O)c1cc(CN2CCOCC2)on1)C(=O)N[C@@H](Cc1ccccc1)C(=O)[C@@]1(C)CO1 [CX13-105] | < 5 nM | 0.97 nM | > 20000 nM | > 20000 nM | 21 µg/mL (≈ 31.2 µM) | > 20000 nM | 1.34 nM | > 20000 nM |  |
| CC(C)C[C@H](NC(=O)[C@H](CCc1ccccc1)NC(=O)CN1CCOCC1)C(=O)N[C@@H](Cc1ccccc1)C(=O)[C@@]1(C)CO1 [CX13-107] | < 5 nM | 4.74 nM | > 20000 nM | 6220 nM | 83 µg/mL (≈ 137 µM) | 9950 nM | 5.1 nM | > 20000 nM |  |
| CC(C)C[C@H](NC(=O)[C@H](CCc1ccccc1)NC(=O)CN1CCOCC1)C(=O)N[C@@H](Cc1ccncc1)C(=O)[C@@]1(C)CO1 [CX13-109] |  | > 500 nM | > 20000 nM | > 20000 nM | 3490 µg/mL (≈ 5740 µM) | > 20000 nM | > 500 nM | > 20000 nM |  |
| CC(=O)N[C@@H](CCc1ccccc1)C(=O)N[C@@H](Cc1ccncc1)C(=O)N[C@@H](CC(C)C)C(=O)[C@@]1(C)CO1 [CX13-130] | < 100 nM | 62.4 nM | > 20000 nM | 1650 nM | 1360 µg/mL (≈ 2600 µM) | 3600 nM | 248 nM | > 20000 nM |  |
| CC(C)C[C@H](NC(=O)[C@H](Cc1ccncc1)NC(=O)[C@H](CCc1ccccc1)NC(=O)Cc1ccc(CN2CCOCC2)cc1)C(=O)[C@@]1(C)CO1 [CX13-133] | < 5 nM | 3.58 nM | > 20000 nM | 455 nM | 6360 µg/mL (≈ 9110 µM) | 443 nM | 4.65 nM | > 20000 nM | < 500 nM |
| Cc1cc(C(=O)N[C@@H](CCc2ccccc2)C(=O)N[C@@H](Cc2ccncc2)C(=O)N[C@@H](CC(C)C)C(=O)[C@@]2(C)CO2)no1 [CX13-135] | < 10 nM | 6.56 nM | > 20000 nM | 6450 nM | 1160 µg/mL (≈ 1970 µM) | 13400 nM | 28.1 nM | > 20000 nM |  |
| Cc1ncc(C(=O)N[C@@H](CCc2ccccc2)C(=O)N[C@@H](Cc2ccncc2)C(=O)N[C@@H](CC(C)C)C(=O)[C@@]2(C)CO2)s1 [CX13-137] | < 50 nM | 13.5 nM | > 20000 nM | 5860 nM | 910 µg/mL (≈ 1500 µM) | 11900 nM | 60.4 nM | > 20000 nM |  |
| COC[C@H](NC(=O)c1cc(CN2CCOCC2)on1)C(=O)N[C@@H](Cc1ccncc1)C(=O)N[C@@H](CC(C)C)C(=O)[C@@]1(C)CO1 [CX13-500] |  | 121 nM | > 20000 nM | > 20000 nM | > 2350 µg/mL | > 20000 nM | 170 nM | > 20000 nM |  |

Further lines, results first:

| IC50 [1, 8] | IC50 [1, 9] | IC50 [2] | IC50 [3] | solubility at 24 h [4] | IC50 [5, 10] | IC50 [6] | IC50 [7] | IC50 [5, 11] | Structure (SMILES) |
| --- | --- | --- | --- | --- | --- | --- | --- | --- | --- |
|  | 113 nM | > 20000 nM | > 20000 nM | 4480 µg/mL (≈ 8460 µM) | > 20000 nM | 392 nM | > 20000 nM |  | COC[C@H](NC(=O)c1cc(C)on1)C(=O)N[C@@H](Cc1ccncc1)C(=O)N[C@@H](CC(C)C)C(=O)[C@@]1(C)CO1 [CX13-501] |
| < 5 nM | 4.28 nM | > 20000 nM | 19900 nM | 20 µg/mL (≈ 29.7 µM) | > 20000 nM | 7.41 nM | > 20000 nM |  | CC(C)C[C@H](NC(=O)[C@H](Cc1ccccc1)NC(=O)[C@H](CCc1ccccc1)NC(=O)c1cc(CN2CCOCC2)on1)C(=O)[C@@]1(C)CO1 [CX13-600] |
| < 50 nM | 16 nM | > 20000 nM | > 20000 nM | 480 µg/mL (≈ 765 µM) | > 20000 nM | 31.7 nM | > 20000 nM |  | COC[C@H](NC(=O)[C@H](CCc1ccccc1)NC(=O)c1cc(CN2CCOCC2)on1)C(=O)N[C@@H](CC(C)C)C(=O)[C@@]1(C)CO1 [CX13-601] |
| < 10 nM | 12.2 nM | > 20000 nM | > 20000 nM | 120 µg/mL (≈ 168 µM) | > 20000 nM | 6.81 nM | > 20000 nM |  | C[C@]1(C(=O)[C@H](Cc2ccccc2)NC(=O)[C@H](Cc2cscn2)NC(=O)[C@H](CCc2ccccc2)NC(=O)c2cc(CN3CCOCC3)on2)CO1 [CX13-605] |
| < 10 nM | 6.1 nM | > 20000 nM | 186 nM | 3730 µg/mL (≈ 5730 µM) | 297 nM | 59.3 nM | > 20000 nM | < 500 nM | COC[C@H](NC(=O)[C@H](CCc1ccccc1)NC(=O)Cc1ccc(CN2CCOCC2)cc1)C(=O)N[C@@H](CC(C)C)C(=O)[C@@]1(C)CO1 [CX13-606] |
| < 10 nM | 9.75 nM | > 20000 nM | > 20000 nM | 20 µg/mL (≈ 33.7 µM) | 15800 nM | 15.3 nM | > 20000 nM |  | COC[C@H](NC(=O)[C@H](CCc1ccccc1)NC(=O)c1cnc(C)s1)C(=O)N[C@@H](Cc1ccccc1)C(=O)[C@@]1(C)CO1 [CX13-705] |
|  |  |  |  | 570 µg/mL (≈ 1070 µM) |  |  |  |  | COC[C@H](NC(=O)c1cnc(C)s1)C(=O)N[C@@H](COC)C(=O)N[C@@H](Cc1ccccc1)C(=O)[C@@]1(C)CO1 [CX13-709] |
